Measured values as given in a melting point compilation (Tetko et al.; mined from patent text by program, amines drawn as free bases though some values may be those of a salt).

SMILES | melting point [°C]
COC(=O)c1nn(-c2ccccc2)c(=O)c2c1c1cc(Cl)ccc1n2C | 265 to 266
Nc1n[nH]c(-c2ccccc2)c1CC(=O)O | 214 to 216
O=C(O)CCCc1cccc(C(=O)c2ccc(Cl)cc2)c1 | 94
CN1CC(CCCO)CC2(OCCO)c3cccc4[nH]cc(c34)CC12 (stereo unspecified) | 212 to 215
CC(C#Cc1ccc(C#N)cc1)N1C(=O)c2ccccc2C1=O (stereo unspecified) | 138 to 142
O=C(Cn1c(-c2ccc(Br)cc2)nc2cccnc21)Nc1ccccc1 | 242 to 244
COC(=O)Nc1ccc(-c2cccc(C3=NC(C)(C)Cc4cc(OC)c5c(c43)CC(C)(C)O5)c2)cc1 | 129 to 133
CC(C)(C)OC(=O)NCC(O)c1ccccc1 (stereo unspecified) | 123 to 124
O=S(=O)(Nc1c(Cl)cccc1Cl)c1nc2ncccn2n1 | 278 to 280
Cc1ccc(S(=O)(=O)NCl)cc1 | 201 to 206
Cc1ccc(N2CCCCC2)c(C(C)C(C(N)=O)c2ccc(C(=O)O)cc2)c1 (stereo unspecified) | 215 to 217
COc1c(N2CCC(N)C(C)(C)C2)c(F)cc2c(=O)c(C(=O)O)cn(C3CC3)c12 (stereo unspecified) | 222 to 224
CC(NC(=O)c1cccc(I)c1)C(O)c1ccccc1 (stereo unspecified) | 139 to 140
O=C(c1ccc(N2CCOCC2)cc1)c1ccc([N+](=O)[O-])cc1 | 173 to 175
Cc1cc(Cl)ccc1Oc1ccc(NC(=O)N2CCc3ccccc3CC2)cn1 | 151 to 153
O=C1Nc2ccccc2SC1CO (stereo unspecified) | 156 to 157
CC(C)C(=O)Nc1csc(Br)n1 | 95
[N-]=[N+]=NC1CC(n2cc(Cl)c(=O)[nH]c2=O)OC1CO (stereo unspecified) | 65
COc1ccc(-c2nc(-c3cccs3)c[nH]2)cc1C | 110 to 114
O=C(NCCO)c1cccc(-c2ncc3ccn(Cc4ccc(Cl)cc4Cl)c3n2)c1 | 194 to 195
COc1cnc(N)c2ccccc12 | 112 to 114
COC(=O)c1c(OCc2ccccc2)ccc2c1CC[C@@H](NC(C)=O)[C@@H]2OC(C)=O (relative stereo) | 171 to 172
Cc1c(Cc2cccc(C(F)(F)F)c2)oc2c(-c3cccc(C(=O)NCCS(C)(=O)=O)c3)cccc12 | 162 to 163
Cc1ccc(-c2nn(-c3cccc([N+](=O)[O-])c3)c(N)c2C(N)=O)cc1 | 237 to 238
Fc1cccc(F)c1CN[C@H]1CCCN[C@H]1c1ccccc1 (relative stereo) | > 260
Clc1ccc(C2=CCc3cc(Br)cnc3O2)cc1Cl | 138 to 140

SMILES | melting point [°C]
O=C(O)c1cccc(-c2cc3ccc(Cl)cc3[nH]c2=O)c1 | > 330
CCCCCCCCCCCCc1cc(C(C(=O)Nc2c(OC)cc(OC)cc2OC)c2ccccc2)on1 (stereo unspecified) | 88 to 97
CSc1nc2cc(C)nn2c2ncccc12 | 190
CCCCc1nc(C(O)C(C)(C)C)c(C#N)n1Cc1ccc(-c2ccccc2-c2nnnn2C(c2ccccc2)(c2ccccc2)c2ccccc2)cc1 (stereo unspecified) | 134 to 135
OC1CSC(Oc2cccnc2F)C(O)C1O (stereo unspecified) | 85 to 87
CN1CCC23c4c5ccc(O)c4OC2C(=O)CCC3(F)C1C5 (stereo unspecified) | 215 to 217
CCCc1nn(-c2ccc(C(F)(F)F)cn2)cc1CCCOc1nn(CC)cc1CC(=O)O | 105 to 106
Fc1cc(F)c(-c2c(Cl)nc3nccn3c2NCC(F)(F)F)c(F)c1 | 155 to 157
O=C1CCCCC(CO)N1 (stereo unspecified) | 100
CS(=O)(=O)c1ccc(N)c([N+](=O)[O-])c1 | 195 to 198
Cc1cn(-c2cccc(C(=O)CC(=O)Nc3cc(-c4ccc(F)cc4)ccc3NC(=O)OC(C)(C)C)c2)cn1 | 124
O=C1NCCC[C@@H]1NS(=O)(=O)c1c(F)cccc1F | 152 to 153
COc1ccc(Br)c(O)c1C(=O)O | 143 to 144
CNCc1cc(Oc2ccc3c(C(=O)Nc4cccc(C(F)(F)F)c4)cccc3c2)ncn1 | 141 to 143
CC1(C)OC(=O)C(Oc2cc(F)cc(F)c2)=C1c1ccc(S(C)(=O)=O)cc1 | 159 to 161
CS(=O)(=O)N(CCO)C1CCC(Nc2nccc(-n3nnc4ccccc43)n2)CC1 (stereo unspecified) | 230 to 231
COc1ccccc1N=Nc1ncc[nH]1 | 152 to 153
N#Cc1cnn2c1N(C(=O)CN1CCN(C(=O)Nc3ccc(Cl)c(C(F)(F)F)c3)CC1)CC=C2c1cccc(C(F)(F)F)c1 | 214 to 216
COC(=O)c1ccnc(N2CCN(Cc3cccnc3)C2=O)c1 | 165 to 167
CCON=C(c1ccccc1COc1cc(C)ccc1C)c1ccnn1C | 74 to 76
CCCc1c(OCCCCCc2c(Cl)ccc(O)c2O)ccc(C(=O)O)c1O | 178 to 181
Oc1cccc2c1sc1ccccc12 | 167 to 168
COc1ccc(CNc2nc(SC)ncc2C=O)cc1Cl | 124 to 125
Cc1ccc(C(=O)C2=C(O)C(=O)N(c3ccc(N(C)C)nn3)C2c2ccc(C(C)C)cc2)cc1 (stereo unspecified) | 281
CCCCCCCCCCCCOC(=O)N[C@@H](CCCCN)C(=O)O | > 260
CCCC[C@H](NC(=O)[C@H](CC(C)C)NC(=O)c1cc(F)c(F)c(F)c1F)C(=O)CSCc1ccco1 | 107 to 108

SMILES | melting point [°C]
Cc1cccc2cc(C(=O)N(C)C)c(C=CNc3ccccc3)nc12 | 143 to 146
COc1ccc2c(c1)CCNC2=O | 128 to 130
COc1ccnc(CCc2nc3cc(-c4ccc(S(=O)(=O)N(C)C)cc4C)cnc3[nH]2)c1 | 179 to 180
C#CC1(O)CCC2(C)C(CCC3C2CCC2(C)C(C(=O)CO)CCC32)C1 (stereo unspecified) | 156 to 157
O=C1C(Br)=CN=CC1Br (stereo unspecified) | 320
Cc1cccc(NC(=O)NC2(C)N=C(N3CCN(C)CC3)c3cccc(C)c3N(C)C2=O)c1 (stereo unspecified) | 136 to 140
FC(F)(F)c1cc(Cl)c(Oc2cc(-c3ccc(Cl)cc3)[nH]n2)c(Cl)c1 | 181 to 183
CCOC(=O)C(=O)c1csc(NC(=O)Nc2ccc(F)cc2)n1 | 220 to 223
CC(C)CN1C(=O)CCC(c2ccccc2Cl)c2cc(Cl)ccc21 (stereo unspecified) | 152 to 154
COc1cc(I)nc(N)n1 | 142 to 144
OCCCC(c1ccccc1)C(O)(c1ccccc1)c1ccccc1 (stereo unspecified) | 120 to 122
O[C@@H]1CN(C2CCCCC2)C[C@@H]1NCc1ccccc1 (relative stereo) | 108 to 110
Cc1c(OCCCCCCC(=O)N(C)c2ccccc2)ccc([N+](=O)[O-])c1C=O | 72 to 73
COC(=O)Cc1ccccc1S(=O)(=O)NC(=S)Nc1nc(OC)nc(OC)n1 | 164 to 168
O=C1CCCN1N=c1sc2ccccc2s1 | 122 to 124
COc1ccc(C=C2CCCN2Cc2ccccc2)cc1OC | 105
CC(=O)c1ccc(-c2ccc(F)cc2Cl)c([N+](=O)[O-])c1 | 93 to 95
CCOC(=O)C(=NNc1ccc(Cl)cc1)C(C)=O | 84 to 85
N#Cc1cc(Cn2cncn2)cc(-c2ccc(OS(N)(=O)=O)c(Cl)c2)c1 | 163 to 164
Cc1oc(-c2ccccc2)nc1COc1cc(COc2ncccc2C#N)on1 | 139 to 140
C[C@H]1C[C@@](O)(c2csc(S(=O)(=O)c3ccc4c(c3)CCC(=O)N4C)c2)CCO1 | 64 to 66
CC(C)c1ccc(C=CC(=O)c2ccc(O)c(CC(=O)O)c2)cc1 | 228
COc1ccc(NC(=O)OCC2(COC(=O)Nc3ccc(OC)cc3)CSc3ccccc3C2=O)cc1 | 58 to 63
COc1ccc(-c2cncc(OC3SCC(OC(C)=O)C(OC(C)=O)C3OC(C)=O)c2)cc1Cl (stereo unspecified) | 155
CCCCN(CCCC)C(=O)Nc1cccc(Br)c1 | 80 to 81
O=C(O[C@H]1[C@H](OC(=O)c2ccccc2)[C@@H](CO)O[C@@H]1CO)c1ccccc1 | 120 to 122

SMILES | melting point [°C]
CCOC(=O)c1c(N2CCN(C(=O)c3cccs3)CC2)c2cscc2n(Cc2ccc(F)cc2)c1=O | 227
CC(C)(C)CC(C)(C)c1cc(-n2nc3ccc(-c4ccc(-c5ccccc5)cc4)cc3n2)c(O)c(C(C)(C)c2ccccc2)c1 | 181 to 183
O=C(NC(Cc1ccccc1)C1CC(Cc2ccccc2)=NO1)OCc1ccccc1 (stereo unspecified) | 87.5 to 89.5
CCc1n[nH]c(CC)c1CCOCCOc1ccc(OC)cc1Cl | 90 to 92
O=C1C=C(C(F)F)C(=O)c2ccccc21 | 74
CC(=O)N1CCc2cc(C3=NNC(=O)CC3C)ccc21 (stereo unspecified) | 258 to 261
COC(=O)c1ccn2cc(C)nc2c1 | 149
Nc1cn(-c2cccnc2)nc1C(F)(F)F | 112 to 115
O=C(NC1=NCCCC1)Nc1ccc(Cl)cc1 | 200 to 203
COC(=O)c1cc(N=C=S)c(C)cc1OC | 86 to 87.5
COc1cc(N)ccc1C(=O)O | 144 to 146
CCCc1cc(C(=O)OC)ccc1OCCCCCOc1ccc2c(c1CCC)OC(C(=O)OC)CC2 (stereo unspecified) | 63 to 64
CN1CCN(CCCOc2ccc(Nc3ncc4ccc(-c5cccnc5)n4n3)cc2)CC1 | 135 to 139
COc1cc(C)nc(NC(=O)NS(=O)(=O)c2c(C)nsc2OCC(F)(F)F)n1 | 159 to 161
O=c1c2cccc3ncc(c(=O)n1CCCCNS(=O)(=O)CC(F)(F)F)n32 | 154 to 155
CCOC(=O)CSc1cc(NS(=O)(=O)c2cccs2)c2ccccc2c1O | 116 to 118
Cc1nc(N2CCN(Cc3ccccc3)C2=O)sc1C(=O)NCc1ccncc1 | 96 to 97
CC(C)(C)n1cnc2c(O)nc3ccccc3c21 | > 300
Cn1cc(C2=C(c3c4n(c5ccccc35)CC(NC(=O)OC(C)(C)C)CC4)C(=O)OC2=O)c2ccccc21 (stereo unspecified) | 141 to 145
O=C1c2ccccc2CSc2ccc(Br)cc21 | 151 to 152
O=[N+]([O-])c1ccc(Cl)nc1Nc1ccccc1 | 95 to 98
c1ccc2c(C3CCCc4cncn43)noc2c1 (stereo unspecified) | 250 to 252
Clc1ccc(Nc2ncc(CCc3cccnc3)c3ccccc23)cc1 | 157 to 158
